From US20110104121A1, “Female Reproductive Tract and Anal Prophylaxes” (priority 2008, published 2011)

Assays:
[1] = tested on: uterine epithelial cells; experiment: Trappin-2/Elafin production by uterine epithelial cells on Poly(I:C) stimulation; format: cell-based, human; conditions: 24 hour conditioned media, ELISA
Experimental: (§1) Materials & Methods. A total of 11 different patients were used to obtain epithelial cells from the uterus, Fallopian tube, endocervix and ectocervix. Epithelial cells were isolated according to known methods (Fahey, et al. (1999) Am. J. Reprod. Immunol. 42(1):49-57; Fahey et al. (1998) Immunol. Invest. 27(3):167-80). Briefly, tissues were rinsed with 1×PBS and minced into 1-2 mm fragments prior to subjecting them to enzymatic digestion for 2 hours at 37° C. The enzyme mixture contained 3.4 mg/ml pancreatin (Invitrogen Life Technologies, Carlsbad, Calif.), 0.1 mg/ml hyaluronidase (Worthington Biochemical, Lakewood, N.J.), 1.6 mg/ml collagenase (Worthington Biochemical), and 2 mg/ml D-glucose, in 1×HBSS (Invitrogen Life Technologies). […] Epithelial cell sheets retained on the filter were recovered by rinsing and backwashing, centrifuged at 500×g for 10 minutes and analyzed for cell number and viability. […]
(§2) Concentrations of Trappin-2/Elafin in the apical and basolateral supernatants from primary FRT epithelial cells and CVL from HIV(+) and (−) women were determined with an ELISA Duoset kit (R&D Systems, Minneapolis, Minn., USA) according to the manufacturer's protocol. […] Amounts of Trappin-2/Elafin were measured based on a standard curve after OD measurements at 450 nm on an ELISA reader (Dynex, Chantilly, Va., USA). […]

[2] = tested on: Fallopian tube, endocervix, and ectocervix epithelial cells; experiment: Trappin-2/Elafin production by Fallopian tube, endocervix and ectocervix epithelial cells on Poly(I:C) stimulation; format: cell-based, human; conditions: 4-6 patients per compartment
Experimental: as §1, §2

[3] = tested on: uterine epithelial cells (UTEC); experiment: CCL20/MIP3α production by uterine (endometrium) epithelial cells on TLR agonist treatment; format: cell-based, human
Text: (§3) Materials and Methods. Source of Tissues Human uterine and Fallopian tube tissues were obtained from women undergoing hysterectomy. Tissues used in this study were collected from patients with benign conditions such as fibroids distal from the site of pathology. The sections were examined by a pathologist and proclaimed to be free of pathological lesions. A total of nine different patients were used to obtain uterine epithelial cells and a total of seven patients were used to obtain Fallopian tube epithelial cells.
(§4) Epithelial cells were isolated according to known methods (Fahey, et al. (1999) supra; Fahey, et al. (1998) supra) as described herein.
(§5) To establish a cell culture system of polarized human uterine epithelial cells (UTEC) and Fallopian tube epithelial cells (FTEC) with both apical and basolateral compartments, primary human UTEC and FTEC were cultured in Human Extracellular Matrix (Becton Dickenson, Franklin Lakes, N.J., USA)-coated Falcon cell culture inserts in 24-well culture plates (Fisher Scientific, Pittsburgh, Pa., USA). For these experiments, apical and basolateral compartments contained 300 and 850 μL of complete medium, respectively. The medium was changed every 2 days. […]
(§6) Concentrations of CCL20/MIP3α in the apical and basolateral supernatants from human primary UTEC and FTEC were determined with an ELISA Duoset kit (R&D Systems, Minneapolis, Minn., USA) according to the manufacturer's protocol. Amounts of CCL20/MIP3α were quantified based on a standard curve after OD measurements at 450 nm on an ELISA reader (Dynex, Chantilly, Va., USA).
(§7) Real-time RT-PCR was carried with a two-step protocol as described herein. […] As indicated herein, the software calculates the threshold cycle (Ct) for each reaction which was used to quantify the amount of starting template in the reaction.

[4] = tested on: Fallopian tube epithelial cells (FTEC); experiment: CCL20/MIP3α production by Fallopian tube epithelial cells on Poly(I:C) treatment; format: cell-based, human
Text: as §3, §4, §5, §6, §7

[5] = tested on: HIV-1 X4/T-tropic IIIB; experiment: TZM-bl infectivity assay, HIV-1 IIIB; format: cell-based; conditions: for post-infection inhibition, IIIB: 1 ng/ml
Experimental: (§8) The TZM indicator cell line is a HeLa cell derivative that expresses high levels of CD4, CCR5 and CXCR4 (Wei, et al. (2002) Antimicrob. Agents Chemother. 46(6):1896-905). The cells contain HIV long terminal repeat (LTR)-driven β-galactosidase and luciferase reporter cassettes that are activated by HIV tat expression.
(§9) TZM cells were seeded at 2×10^4 cells per well in a 96-well microtiter plate and allowed to adhere overnight at 37° C. Varying doses of recombinant human Trappin-2/Elafin (Peprotech, Rocky Hill, N.J.) were incubated with HIV-1 IIIB and BaL at multiplicity of infection (MOI) 1 for 1 hour at 37° C. in a final volume of 100 μl. Following incubation, the media was aspirated from TZM cells and the virus plus Trappin-2/Elafin was added to the cells along with 100 μl of TZM media. Luciferase activity was measured after 48 hours at 37° C. with 5% CO2 in a humidified incubator. Briefly, the supernatants were aspirated, and the cells were lysed with a BETA GLO luciferase assay substrate. Light intensity of each well was measured using a luminometer. Uninfected cells were used to determine background luminescence. All infectivity assays were performed in quadruplicate.
(§10) Other experiments were conducted in order to determine whether the inhibitory effects of Trappin-2/Elafin were at the cell surface level such as the blocking of a co-receptor. For these experiments, varying doses of Trappin-2/Elafin were directly added to TZM cells and incubated for 1 hour at 37° C. prior to washing with 1×PBS and addition of IIIB or BaL viruses. In additional experiments to determine possible post-infection mechanisms of inhibition by Trappin-2/Elafin, TZM cells were infected with HIV-1 IIIB and BaL at MOI 1 and were washed at 6 hours and 24 hours post-infection followed by the addition of 10 ng/ml rTrappin-2/Elafin. Assays were developed at 48 hours by addition of the BETA-GLO substrate and measuring relative light units using a luminometer.
(§11) Since HIV-1 is an important sexually transmitted pathogen, the activity of recombinant Trappin-2/Elaf in (rTrappin-2/Elafin) was evaluated against HIV-1 X4/T-tropic IIIB and R5/M-tropic BaL. HIV-1 IIIB and BaL were incubated with rTrappin-2/Elafin at 0.01, 0.1, 1, and 10 ng/ml for 1 hour at 37° C. TZM-bl indicator cells were plated the previous day at 25,000 cells per well and grown to 70-80% confluence. The virus-Trappin-2/Elafin mixture was added to the TZM cells and incubated for 48 hours at 37° C. At the end of the incubation period, BETA-GLO substrate was added to the cells and viral infection was quantified using a luminometer, expressed as relative light units (RLU). The data was expressed as percent of control with virus-only control set at 100%. […] Therefore, the concentrations of Trappin-2/Elafin showing anti-HIV-1 activity were in the range of physiological levels of this molecule that were secreted by the FRT epithelial cells. Since the inhibitory activity was observed as a result of pre-incubation of HIV-1 and rTrappin-2/Elafin, it is contemplated that the effect of Trappin-2/Elafin on viral infection was direct. […]
(§12) Laboratory-adapted viral strains HIV-1 IIIB (×4) and BaL (R5) were obtained and virus stocks were propagated in PHA-stimulated human PBMC and stored frozen at −80° C. Virus stocks produced in PBMC of molecularly cloned HIV-1 NL4.3 (×4; lab-adapted) and YU-2.c (R5; directly cloned without culture) were obtained. Virus titers were determined on TZM-bl cells as described herein. Also used was a PBMC-derived virus stock of pCH077.c, a recently generated Clade B infectious molecular clone matching the nucleotide sequence determined to be the transmitted/founder virus sequence of CHAVI subject 700010077. […]

[6] = tested on: HIV-1 R5/M-tropic BaL; experiment: TZM-bl infectivity assay, HIV-1 BaL; format: cell-based
Experimental: as §8, §9, §10, §11, §12

[7] = tested on: TZM cells; format: cell-based, human
Experimental: Viability of TZM cells upon treatment with Trappin-2/Elafin and CVL was quantified using the […] 96° AQueous One Solution Cell Proliferation Assay (Promega) according to manufacturer's instructions. Briefly, reagent was added directly to cell cultures and incubated for 1 hour at 37° C. followed by reading the plate in a plate reader at OD 490 nm.

[8] = cells pre-incubated with 0.1 and 1 ng/ml 1 hour, washed
[9] = virus pre-incubated 1 hour with 0.01, 0.1, 1, 10 ng/ml, 48 hours

For Poly(I:C), the “Trappin-2/Elafin secretion by UT epithelial cells” value [1] was “significantly increased”, the “fraction of patients upregulating Trappin-2/Elafin” value [2] was “approximately ⅓ typically responded” and the “CCL20/MIP3α mRNA upregulation” value ([3]; Poly(I:C) 25 μg/mL, 24 hours, five out of five patients) was “greater than two-fold”. The “endometrium CCL20/MIP3α secretion” value ([3]; Poly(I:C) 24 hours, ELISA) was “significant increase”, the “CCL20/MIP3α level secreted by endometrium cells” value ([3]; stimulated with Poly(I:C), constitutive 0.2-7 ng/mL) was 5 to 12 ng/mL and the “samples with CCL20/MIP3α mRNA upregulation” value ([4]; Poly(I:C) 24 hours) was “two out of four samples”. For the same substance, the “Fallopian tube CCL20/MIP3α secretion” value ([4]; Poly(I:C) 24 hours, ELISA) was “significant increase” and the “CCL20/MIP3α level secreted by Fallopian tube cells” value ([4]; stimulated with Poly(I:C), constitutive 5-12 ng/mL) was 13 to 20 ng/mL.
In the case of “rTrappin-2/Elafin: recombinant human Trappin-2/Elafin (Peprotech), serine protease inhibitor (AQEPVKGPVSTKPGSCPIILIRCAMLNPPNRCLKDTDCPGIKKCCEGSCGMACFVPQ; UniProt P19957 61-117, looked up)”, the “post-infection inhibition, IIIB” value ([5]; added 6 hours post-infection) is reported as “no significant post-infection inhibition”, the “post-infection inhibition, IIIB” value ([5]; added 24 hours post-infection) is reported as “slight inhibition” and the “infectivity of TZM cells by IIIB after pre-exposure of the cells” value [5, 8] is reported as “no effect”. The “inhibition of IIIB” value [5, 9] was ~80%, the “post-infection inhibition, BaL” value ([6]; added 6 and 24 hours post-infection, 1 ng/ml) was “no significant post-infection inhibition” and the “infectivity of TZM cells by BaL after pre-exposure of the cells” value [6, 8] was “no effect”. The “inhibition of BaL” value [6, 9] was ~60% and the “toxic effect on the TZM cells (viability)” value [7] was “not due to toxic effect”.
